The values below come from patent US11249094B2, “Astrocyte traumatome and neurotrauma biomarkers” (THE REGENTS OF THE UNIVERSITY OF CALIFORNIA, priority 2015, dated 2022).

For the assay, the system named is Trauma-released GFAP upper and lower BDPs. Briefly: GFAP breakdown products in conditioned medium of severely stretched astrocyte cultures with protease inhibitors (immunoblot). It counts as cell-based, human. The following applies: 48 hour post-injury, DAKO anti-GFAP polyclonal antibody immunoblot. How it is done: Human astrocytes were isolated from 16-18 week donated fetal neocortical brain specimen, purified and then differentiated on deformable membranes (Wanner, 2012). Cell membrane wounding/compromise, mechanoporation (Barbee, 2005), was determined using Propidium iodide (PI) uptake in living cultures accompanied by nuclear shape assessment (middle picture, stained nuclei, Hoechst stained after fixation, with little pink dots, nucleoli that are PI-stained). Cell death was determined by PI uptake accompanied by condensed nuclei (pyknotic nuclei with compacted chromatin and bright Hoechst and PI stains). Significant percent of cell integrity compromise is shown 30 min post-injury (left graph) while significant cell death was present two days post-injury (bars on the right).
In order to capture the full range of signal intensity, signals from multiple exposures of immunoblots were densitometrically measured (optical densities) and scaled to match a single exposure.
Shown in FIG. 25 are two film exposures of GFAP, upper and lower breakdown products 48 hour post-injury in conditioned medium samples using the DAKO anti-GFAP polyclonal antibody. Severely stretched and unstretched cultures received either no drug, calpain inhibitor PD150606 (100 μM, “Cali”) or pan-caspase inhibitor Z-VAD FMK (8.8 μM, “Casi”). […]
(In general: A western blot detects proteins with antibodies after separation by electrophoresis.)

With `O=C(O)/C(S)=C/c1ccc(I)cc1` [PD150606], the “Trauma-released GFAP upper and lower BDPs in conditioned medium” value (100 μM) was “reduced”.
Regarding Z-VAD FMK, for the setting “8.8 μM”, the “Trauma-released GFAP upper and lower BDPs in conditioned medium” value is “reduced”.
